Patent US9573966B2, “Anti-cancer activity of novel bicyclic heterocycles” (Katholieke Universiteit Leuven, K.U.Leuven R&D, priority 2010, dated 2017)

Columns and labels:
HSB-2 cells = assay: Inhibition of HSB-2 leukemic cell line proliferation (WST-1); format: cell-based, human; conditions: cytotoxicity on HSB-2 cells, two days incubation, WST-1 read-out
In short: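 HSB-2 human ALL cells, 50000/well in RPMI-1640 + 10% FCS, exposed to compounds 2 days at 37 °C, then WST-1 2 h, OD 450 nm. Proliferation scaled between untreated (max) and Triton X100 (min) controls; IC50 from ≥4-point curves, each point mean of ≥2 experiments.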

HL-60 cells = assay: Inhibition of HL-60 leukemic cell line proliferation (WST-1); format: cell-based, human; conditions: cytotoxicity on HL-60 cells, two days incubation, WST-1 read-out
Protocol: HL-60 cell line, a human promyelocytic leukemia (ATCC; CCL-240) cell line, was grown in RPMI-1640 medium (Lonza, Belgium) supplemented with 10% fetal calf serum (Hyclone, US) and antibiotics. Exponential growing phase cells were seed in flat bottom 96-well microplates (TTP, Switzerland) at 50000 cells per well in 220 μl of medium with compounds (in different concentrations) and incubated for two days at 37° C., 5% CO2. After incubation, 100 μl of supernatant were removed and 10 μl of WST-1 (Roche, Switzerland) were added. After 2 hour incubation at 37° C., 5% CO2, optical densities were measured at 450 nm. Proliferation is calculated with respect of control points (no compound and treatment with Triton X100 to have maximum and minimum proliferation data). The IC50 was determined from a graph with at least four points, each derived from the mean of at least 2 experiments. […] The results are shown in Table 2 for a number of compounds.

Row | SMILES | IC50 (HSB-2 cells; Homo sapiens, HSB2, 48 h) | IC50 (HL-60 cells; Homo sapiens, 48 h) | IC50 (HSB-2 cells) | IC50 (HL-60 cells)
1 | N#Cc1ccc(NC(=O)N2CCN(c3nc(N)nc4sc(-c5cccnc5)nc34)CC2)cc1 [Example 279, 4-(5-amino-2-(pyridin-3-yl)thiazolo[5,4-d]pyrimidin-7-yl)-N-(4-cyanophenyl)piperazine-1-carboxamide] | 0.68 µM | 0.88 µM | – | –
2 | Nc1nc(N2CCN(C(=O)COc3ccc(Cl)cc3)CC2)c2nc(-c3ccccn3)sc2n1 [Example 282, 1-(4-(5-amino-2-(pyridin-2-yl)thiazolo[5,4-d]pyrimidin-7-yl)piperazin-1-yl)-2-(4-chlorophenoxy)ethanone] | 0.56 µM | 0.92 µM | – | –
3 | Nc1nc(N2CCN(C(=O)COc3ccc(Cl)cc3)CC2)c2cc(-c3ccc(F)cc3)sc2n1 [Example 326, 1-(4-(2-amino-6-(4-fluorophenyl)thieno[2,3-d]pyrimidin-4-yl)piperazin-1-yl)-2-(4-chlorophenoxy)ethanone] | 8.97 µM | > 10 µM | – | –
4 | Nc1nc(N2CCN(C(=O)COc3ccc(Cl)cc3)CC2)c2cc(-c3ccccc3)sc2n1 [Example 329, 1-(4-(2-amino-6-phenylthieno[2,3-d]pyrimidin-4-yl)piperazin-1-yl)-2-(4-chlorophenoxy)ethanone] | 13.7 µM | > 10 µM | – | –
5 | Cc1cccc(NC(=O)N2CCN(c3nc(N)nc4sc(-c5ccccc5)cc34)CC2)c1 [Example 330, 4-(2-amino-6-phenylthieno[2,3-d]pyrimidin-4-yl)-N-m-tolylpiperazine-1-carboxamide] | 7.61 µM | > 10 µM | – | –
6 | Nc1nc(N2CCN(C(=O)Nc3ccc(Cl)cc3)CC2)c2cc(-c3ccccc3)sc2n1 [Example 331, 4-(2-amino-6-phenylthieno[2,3-d]pyrimidin-4-yl)-N-(4-chlorophenyl)piperazine-1-carboxamide] | > 10 µM | > 10 µM | – | –
7 | Nc1nc(N2CCN(C(=O)COc3ccccc3)CC2)c2cc(-c3ccccc3)sc2n1 [Example 332, 1-(4-(2-amino-6-phenylthieno[2,3d]pyrimidin-4-yl)piperazin-1-yl)-2-phenoxyethanone] | – | – | 5.5 µM | > 10 µM
8 | Nc1nc(N2CC[C@@H](NC(=O)c3ccc(Cl)cc3)C2)c2cc(-c3ccc(F)cc3)sc2n1 [Example 341, (R)—N-(1-(2-amino-6-(4-fluorophenyl)thieno[2,3-d]pyrimidin-4-yl)pyrrolidin-3-yl)-4-chlorobenzamide] | > 10 µM | > 10 µM | – | –
9 | Nc1nc(N2CCN(C(=O)CCc3ccccc3)CC2)c2cc(-c3ccc(F)cc3)sc2n1 [Example 343, 1-(4-(2-amino-6-(4-fluorophenyl)thieno[2,3-d]pyrimidin-4-yl)piperazin-1-yl)-3-phenylpropan-1-one] | > 10 µM | > 10 µM | – | –
10 | Nc1nc(N2CCN(C(=O)COc3ccc(Cl)cc3)CC2)c2ccsc2n1 [Example 351, 1-(4-(2-aminothieno[2,3-d]pyrimidin-4-yl)piperazin-1-yl)-2-(4-chlorophenoxy)ethanone] | 1.7 µM | 5.08 µM | – | –
11 | COc1ccc(OCC(=O)N2CCN(c3nc(N)nc4sc(-c5ccccc5)cc34)CC2)cc1 [Example 369, 1-(4-(2-amino-6-phenylthieno[2,3-d]pyrimidin-4-yl)piperazin-1-yl)-2-(4-methoxyphenoxy)ethanone] | 5.87 µM | 6.05 µM | – | –
12 | COc1ccc(-c2nc3c(N4CCN(C(=O)COc5ccc(Cl)cc5)CC4)nc(N)nc3[nH]2)cc1OC [Example 390, 1-(4-(2-amino-8-(3,4-dimethoxyphenyl)-9H-purin-6-yl)piperazin-1-yl)-2-(4-chlorophenoxy)ethanone] | 0.45 µM | > 10 µM | – | –
13 | Nc1nc(N2CCN(C(=O)COc3ccc(Cl)cc3)CC2)c2nc(-c3ccc(Br)cc3)[nH]c2n1 [Example 391, 1-(4-(2-amino-8-(4-bromophenyl)-9H-purin-6-yl)piperazin-1-yl)-2-(4-chlorophenoxy)ethanone] | 2.14 µM | 3.65 µM | – | –
14 | Nc1nc(N2CCN(C(=O)COc3ccc(Cl)cc3)CC2)c2nc(-c3ccc(Cl)cc3)[nH]c2n1 [Example 392, 1-(4-(2-amino-8-(4-chlorophenyl)-9H-purin-6-yl)piperazin-1-yl)-2-(4-chlorophenoxy)ethanone] | 2.23 µM | 3.14 µM | – | –
15 | Nc1nc(N2CCN(C(=O)COc3ccc(Cl)cc3)CC2)c2nc(-c3cccc(Cl)c3)[nH]c2n1 [Example 393, 1-(4-(2-amino-8-(3-chlorophenyl)-9H-purin-6-yl)piperazin-1-yl)-2-(4-chlorophenoxy)ethanone] | 1.38 µM | 9.18 µM | – | –
16 | Nc1nc(N2CCN(C(=O)COc3ccc(Cl)cc3)CC2)c2nc(-c3ccc(C(F)(F)F)cc3)[nH]c2n1 [Example 394, 1-(4-(2-amino-8-(4-(trifluoromethyl)phenyl)-9H-purin-6-yl)piperazin-1-yl)-2-(4-chlorophenoxy)ethanone] | 7.37 µM | 8.78 µM | – | –

Row | SMILES | IC50 (HSB-2 cells; Homo sapiens, HSB2, 48 h) | IC50 (HL-60 cells; Homo sapiens, 48 h) | IC50 (HSB-2 cells) | IC50 (HL-60 cells)
17 | Cc1ccc(-c2nc3c(N4CCN(C(=O)COc5ccc(Cl)cc5)CC4)nc(N)nc3[nH]2)cc1 [Example 396, 1-(4-(2-amino-8-p-tolyl-9H-purin-6-yl)piperazin-1-yl)-2-(4-chlorophenoxy)ethanone] | 0.49 µM | 4.97 µM | – | –
18 | CCCc1nc2c(N3CCN(C(=O)COc4ccc(Cl)cc4)CC3)nc(N)nc2[nH]1 [Example 397, 1-(4-(2-amino-8-propyl-9H-purin-6-yl)piperazin-1-yl)-2-(4-chlorophenoxy)ethanone] | 4.51 µM | 1.26 µM | – | –
19 | Nc1nc(N2CCN(C(=O)COc3ccc(Cl)cc3)CC2)c2nc(C3CC3)[nH]c2n1 [Example 398, 1-(4-(2-amino-8-cyclopropyl-9H-purin-6-yl)piperazin-1-yl)-2-(4-chlorophenoxy)ethanone] | 4.78 µM | 6.08 µM | – | –
20 | Cc1nc2c(N3CCN(C(=O)COc4ccc(Cl)cc4)CC3)nc(N)nc2[nH]1 [Example 400, 1-(4-(2-amino-8-methyl-9H-purin-6-yl)piperazin-1-yl)-2-(4-chlorophenoxy)ethanone] | 2.06 µM | 2.98 µM | – | –
21 | Nc1nc(N2CCN(C(=O)COc3ccccc3)CC2)c2nc(-c3ccc(F)cc3)[nH]c2n1 [Example 401, 1-(4-(2-amino-8-(4-fluorophenyl)-9H-purin-6-yl)piperazin-1-yl)-2-phenoxyethanone] | > 10 µM | > 10 µM | – | –
22 | Nc1nc(N2CCN(CC(=O)Nc3cccnc3)CC2)c2nc(-c3ccc(F)cc3)[nH]c2n1 [Example 412] | – | – | > 10 µM | > 10 µM
23 | Nc1nc(N2CCN(c3ccc(Cl)cc3)CC2)c2nc(-c3ccc(F)cc3)[nH]c2n1 [Example 414, 6-(4-(4-chlorophenyl)piperazin-1-yl)-8-(4-fluorophenyl)-9H-purin-2-amine] | > 10 µM | > 10 µM | – | –
24 | Nc1nc(N2CCCN(C(=O)COc3ccc(Cl)cc3)CC2)c2nc(-c3ccc(F)cc3)[nH]c2n1 [Example 421, 1-(4-(2-amino-8-(4-fluorophenyl)-9H-purin-6-yl)-1,4-diazepan-1-yl)-2-(4-chlorophenoxy)ethanone] | > 10 µM | > 10 µM | – | –
25 | Cc1cccc(NC(=O)N2CCCN(c3nc(N)nc4[nH]c(-c5ccc(F)cc5)nc34)CC2)c1 [Example 422, 4-(2-amino-8-(4-fluorophenyl)-9H-purin-6-yl)-N-m-tolyl-1,4-diazepane-1-carboxamide] | > 10 µM | > 10 µM | – | –
26 | CSc1nc2c(N3CCN(C(=O)COc4ccc(Cl)cc4)CC3)nc(N)nc2[nH]1 [Example 424, 1-(4-(2-amino-8-(methylthio)-9H-purin-6-yl)piperazin-1-yl)-2-(4-chlorophenoxy)ethanone] | 4.6 µM | 0.01 µM | – | –
27 | CCCSc1nc2c(N3CCN(C(=O)COc4ccc(Cl)cc4)CC3)nc(N)nc2[nH]1 [Example 425, 1-(4-(2-amino-8-(propylthio)-9H-purin-6-yl)piperazin-1-yl)-2-(4-chlorophenoxy)ethanone] | 4.57 µM | 8.83 µM | – | –
28 | Nc1nc(N2CCN(C(=O)COc3ccc(Cl)cc3)CC2)c2nc(SCc3ccccc3)[nH]c2n1 [Example 426, 1-(4-(2-amino-8-(benzylthio)-9H-purin-6-yl)piperazin-1-yl)-2-(4-chlorophenoxy)ethanone] | > 10 µM | > 10 µM | – | –
29 | CSc1nc2c(N3CCN(C(=O)COc4ccc(Cl)cc4)CC3)nc(N)nc2n1C [Example 428, 1-(4-(2-amino-9-methyl-8-(methylthio)-9H-purin-6-yl)piperazin-1-yl)-2-(4-chlorophenoxy)ethanone] | 0.75 µM | 1.59 µM | – | –
30 | Nc1nc(N2CCN(C(=O)COc3ccc(Cl)cc3)CC2)c2nc(SC3CCCC3)[nH]c2n1 [Example 429, 1-(4-(2-amino-8-(cyclopentylthio)-9H-purin-6-yl)piperazin-1-yl)-2-(4-chlorophenoxy)ethanone] | 7.87 µM | > 10 µM | – | –
31 | Cn1c(-c2ccc(F)cc2)nc2c(N3CCN(C(=O)COc4ccc(Cl)cc4)CC3)nc(N)nc21 [Example 430, 1-(4-(2-amino-8-(4-fluorophenyl)-9-methyl-9H-purin-6-yl)piperazin-1-yl)-2-(4-chlorophenoxy)ethanone] | 3.5 µM | 0.99 µM | – | –
